From patent US12285393B2, “Roles of modulators of intersectin-Cdc42 signaling in Alzheimer's disease” (priority 2017, dated 2025)
Peptide text beside a SMILES is read from it. * marks the point of attachment. Trt = c1ccc(C(c2ccccc2)(c2ccccc2)*)cc1; Cbz = O=C(OCc1ccccc1)*; NHNH2 = NN*

Molecular target: Cdc42 (Homo sapiens, UniProt P60953)
Test: Cdc42-GEF-assay, additional compound screening
Type: biochemical
Parameters: purchased Cytoskeleton Inc
Details: for % ZCL278 (with GEF): assay slope relative to ZCL278, normalized to batch; for % ZCL278 (without GEF): baseline slope relative to ZCL278, normalized to batch; for % ZCL367 (inhibitor activity): percentages of ZCL367 normalized to batch, less than 100% = more potent inhibitor; for % ZCL278 (activator activity): percentages of ZCL278 activity normalized to batch, more than 100% = more potent activator, Table 9
Procedure: Rho-GEF IC50 Assay: Rho-GEF assay (Cytoskeleton Inc., Denver, Colorado, United States of America) was conducted per manufacturer's instructions (λex=360 nm, λem=460 nm). Briefly, a solution (50 μL) of purified Rho GTPase (1 μM) and mant-GTP (1.5 μM) with or without compound (0.001-500 μM) was prepared and the absorbance monitored for 10-30 min to obtain the background/baseline. The addition of purified GEF/DH domain (0.08-0.2 μM) was carried out simultaneously and the absorbance was recorded for 30-45 min. The linear slope following the addition of the GEF was calculated and expressed as percentage of the control and plotted on an IC50 curve.
Cdc42 (1 μM) was incubated with mant-GTP (1.5 μM) and varying concentrations of ZCL278, ZCL279, or ZCL367 (5-500 μM). Fluorescent readings were taken every minute for 10 m to acquire the baseline. The GEF/DH domain (0.08-0.2 μM) was added followed by readings taken every minute for another 30 m. The linear phase was calculated from within the time period of 12-22 m. Cdc42 (1 μM) was incubated with mant-GTP (1.5 μM) and varying concentrations of ZCL278, ZCL279, or ZCL367 (5-500 μM). Fluorescent readings were taken every minute for 30 m to monitor the binding of mant-GTP in the absence of GEF/DH domain.
Cdc42-GEF-assays were conducted on additional screening compounds in batches of 9 compounds per batch as described above in Example 2 using ZCL278 and ZCL367 as standards. Screening compounds were taken from the Specs Chemistry Database of 197,000 compounds for small molecule or the National Cancer Institute Compound Library. […] These compounds promote Cdc42-mantGTP binding without GEF. It is possible that these compounds can inhibit Cdc42-mantGTP binding with GEF. […] These compounds appear to have activity like ZCL279. […] However, upon the addition of GEF, the compounds appear to facilitate the binding of mantGTP to Cdc42 (high assay slope, relative to ZCL278)

Chain of Cdc42 (P60953 whole entry): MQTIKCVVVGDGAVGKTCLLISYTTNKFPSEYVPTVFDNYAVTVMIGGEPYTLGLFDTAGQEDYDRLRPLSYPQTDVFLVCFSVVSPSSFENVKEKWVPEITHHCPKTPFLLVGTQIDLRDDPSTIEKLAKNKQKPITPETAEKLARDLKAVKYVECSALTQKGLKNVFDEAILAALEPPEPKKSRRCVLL

| Compound | % ZCL278 (with GEF) | % ZCL278 (without GEF) | % ZCL367 (inhibitor activity) | other results |
| --- | --- | --- | --- | --- |
| NNC(=O)C(Cc1cnc[nH]1)NC(=O)CNC(=O)C(CSC(c1ccccc1)(c1ccccc1)c1ccccc1)NC(=O)OCc1ccccc1 (stereo not drawn) [NSC129911] (Cbz-Cys(Trt)-Gly-His-NHNH2; configuration not given here) | 96.611% | 31.919% |  |  |
| O=C(Nc1ccc(S(=O)(=O)Nc2cccc3ccccc23)cc1)Nc1cccc(Cl)c1 [ZCL1127] |  |  | 98.5% |  |
| O=c1[nH]cc(C2OCC(O)C(O)C2O)c(=O)[nH]1 (stereo not shown) [NSC94024] | 96.844% | 34.327% |  |  |
| CC1(C)OCC(C2OC(O)C3OC(C)(C)OC32)O1 (stereo not shown) [NSC25268] |  |  | 64.92% |  |
| O=c1c2ccccc2nc(/C=C/c2c(O)ccc3ccccc23)n1-c1ccc(O)cc1 [ZCL1111] |  |  | 109.35% |  |
| C[C@H](Oc1cccc(Cl)c1)C(=O)Nc1ccccc1NC(=O)[C@H](C)Oc1cccc(Cl)c1 [ZCL1120] |  |  | 81.19% |  |
| c1ccc(-c2nc3c(c(NCc4cn5ccsc5n4)n2)CCNC3)cc1 [ZCL1144] |  |  |  | % ZCL278 (activator activity): 454.3% |
| OCN1CCC2N(CO)CCC3N(CO)CCC1N23 (stereo not shown) [NSC81461] | 92.160% | 15.832% |  |  |
| NC(=O)c1[nH]nc(C2OC(CO)C(O)C2O)c1O (stereo not shown) [NSC143095] |  |  | 62.98% |  |
| Cc1cn(C2OC(C(O)C(N)=O)C(O)C2O)c(=O)[nH]c1=O (stereo not shown) [NSC111600] | 185.829% | 9.098% |  |  |
| CC1(C)OC2COC(c3[nH]nc(C(N)=O)c3C(=O)N=[N+]=[N-])C2O1 (stereo not shown) [NSC136024] | 82.316% | 20.812% |  |  |
| c1ccc(-c2nc3c(c(NCc4cn5ccsc5n4)n2)CCNC3)cc1 [ZCL1143] | 96.811% | 45.056% |  |  |
| O=C(CSCc1ccccc1)Nc1ccc(C(=O)O)cc1NC(=O)CSCc1ccccc1 [ZCL1117] |  |  | 74.15% |  |
| O=C(C(=O)N1CCC(O)(CO)CC1)c1c(-c2ccccc2)cc2ccccn12 [ZCL1137] |  |  | 93.54% |  |
| NC(=O)c1ccsc1NC(=O)c1cc(-c2cccc(Br)c2)nc2ccc(Cl)cc12 [ZCL1125] |  |  | 28.67% |  |
| CCCCCn1c(O)c(C(=O)Nc2ccccc2S(N)(=O)=O)c(=O)c2ccccc21 [ZCL1105] |  |  | 3.42% |  |
| NC(=O)CCN(Cc1ccccc1)C(=O)Nc1cccc(OC2CCCC2)c1 [ZCL1139] |  |  | 88.55% | % ZCL278 (activator activity): 100.29% |
| O=C(CCCN1C(=O)/C(=C2\SC(=S)N(CCCC(=O)Nc3ccccc3O)C2=O)SC1=S)Nc1ccccc1O [ZCL1100] |  |  | 29.97% |  |
| NC(=O)c1cc([N+](=O)[O-])ccc1NCCN1C(=O)C2C(C1=O)[C@H]1C=C[C@@H]2C1 (stereo partly shown) [ZCL1118] |  |  | 46.77% |  |
| NS(=O)(=O)c1ccc(NC2OCC(O)C(O)C2O)cc1 (stereo not shown) [NSC158437] | 127.593% | 12.229% |  |  |
| O=C(c1ccccc1O)N1CCOc2c(O)cc(-c3nc4ccccc4s3)cc2C1 [ZCL1142] | 98.499% | 69.001% |  |  |
| NC1C=CN(C2OC(CO)C(O)C2O)C(=O)N1O (stereo not shown) [NSC128731] |  |  |  | % ZCL278 (activator activity): 108.28% |
| O=C(CCN1C(=O)C2C(C1=O)[C@H]1C=C[C@@H]2C1)Nc1cccc2ccccc12 (stereo partly shown) [ZCL1119] | 103.291% | 59.173% |  |  |
| O=C1C2C(C(=O)N1/N=C/c1c(O)ccc3ccccc13)[C@H]1C=CC2C12CC2 (stereo partly shown) [ZCL1107] |  |  | 62.37% |  |
| O=C(CCCN1C(=O)/C(=C2\SC(=S)N(CCCC(=O)Nc3ccccc3O)C2=O)SC1=S)Nc1ccccc1O [ZCL1110] |  |  | 104.15% |  |
| CC(=O)Nc1ccc(Nc2nc(-c3ccc(O)cc3)cs2)cc1 [ZCL1124] | 97.542% | 63.125% |  |  |
| OCCNC[C@H](O)Cn1c(-c2ccccc2)c(-c2ccccc2)c2ccc3ccccc3c21 [ZCL1115] |  |  | 27.33% |  |
| Cc1c2oc3c(C)ccc(C(=O)NC(C(N)=O)C(C)O)c3nc-2c(C(=O)NC(C(N)=O)C(C)O)c(N)c1=O (stereo not shown) [NSC407188] |  |  | 70.58% |  |
| O=C1/C(=C/c2ccc(O)c(O)c2)SC(=S)N1Nc1ccccc1 [ZCL1109] |  |  | 55.74% |  |
